Inconclusive results and toxic doses are left out. No stated cut-off is given here; in the data, active means T/C of 150% or more; inactive means T/C below 125%.
Test system: L1210 leukemia ip in BDF1 mice, survival T/C
Test: NCI In Vivo Anticancer Drug Screen. Data for tumor model L1210 Leukemia (intraperitoneal) in B6D2F1 (BDF1) mice
Conditions: endpoint: mean survival time, higher = longer survival
Procedure, shortened: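 Transplantable tumor model; survival measured in treated vs vehicle control mice. Value = treated/control.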

[1] = dose: 100.0 mg/kg/injection, schedule: Q01DX009 (ip), vehicle: Klucel (hydroxypropylcellulose) (HPC)
[2] = dose: 200.0 mg/kg/injection, schedule: Q01DX009 (ip), vehicle: Klucel (hydroxypropylcellulose) (HPC)
[3] = dose: 400.0 mg/kg/injection, schedule: Q01DX009 (ip), vehicle: Klucel (hydroxypropylcellulose) (HPC)
[4] = dose: 100.0 mg/kg/injection, schedule: Q01DX001 (ip), vehicle: saline
[5] = dose: 200.0 mg/kg/injection, schedule: Q01DX001 (ip), vehicle: saline
[6] = dose: 400.0 mg/kg/injection, schedule: Q01DX001 (ip), vehicle: saline
[7] = dose: 100.0 mg/kg/injection, schedule: Q04DX003 (ip), vehicle: Klucel (hydroxypropylcellulose) (HPC)
[8] = dose: 200.0 mg/kg/injection, schedule: Q04DX003 (ip), vehicle: Klucel (hydroxypropylcellulose) (HPC)
[9] = dose: 400.0 mg/kg/injection, schedule: Q04DX003 (ip), vehicle: Klucel (hydroxypropylcellulose) (HPC)
[10] = dose: 50.0 mg/kg/injection, schedule: Q01DX009 (ip), vehicle: saline
[11] = dose: 100.0 mg/kg/injection, schedule: Q01DX009 (ip), vehicle: saline
[12] = dose: 200.0 mg/kg/injection, schedule: Q01DX009 (ip), vehicle: saline
[13] = dose: 100.0 mg/kg/injection, schedule: Q04DX003 (ip), vehicle: saline with Tween-80
[14] = dose: 200.0 mg/kg/injection, schedule: Q04DX003 (ip), vehicle: saline with Tween-80
[15] = dose: 400.0 mg/kg/injection, schedule: Q04DX003 (ip), vehicle: saline with Tween-80
[16] = dose: 25.0 mg/kg/injection, schedule: Q01DX009 (ip), vehicle: saline
[17] = dose: 400.0 mg/kg/injection, schedule: Q01DX009 (ip), vehicle: saline
[18] = dose: 100.0 mg/kg/injection, schedule: Q01DX009 (ip), vehicle: saline with Tween-80
[19] = dose: 200.0 mg/kg/injection, schedule: Q01DX009 (ip), vehicle: saline with Tween-80
[20] = dose: 400.0 mg/kg/injection, schedule: Q01DX009 (ip), vehicle: saline with Tween-80
[21] = dose: 25.0 mg/kg/injection, schedule: Q04DX003 (ip), vehicle: saline
[22] = dose: 50.0 mg/kg/injection, schedule: Q04DX003 (ip), vehicle: saline
[23] = dose: 100.0 mg/kg/injection, schedule: Q01DX001 (ip), vehicle: saline sonified
[24] = dose: 25.0 mg/kg/injection, schedule: Q01DX001 (ip), vehicle: saline
[25] = dose: 50.0 mg/kg/injection, schedule: Q01DX001 (ip), vehicle: saline

Measured: T/C

O=C(Cc1ccccc1)Nc1cccc(C(F)(F)F)c1
inactive: [1] 91 % of control | [2] 95 % of control | [3] 98 % of control

COc1cc(C(=O)COC(C)=O)cc(OC)c1OC(C)=O
inactive: [4] 88 % of control | [5] 89 % of control | [6] 89 % of control

C=CCN(CC=C)c1ccccc1
inactive: [1] 93 % of control | [7] 108 % of control | [2] 107 % of control | [8] 101 % of control | [3] 112 % of control | [9] 101 % of control

CN(C)C
inactive: [10] 101 % of control | dose: 100.0 mg/kg/injection, schedule: Q04DX002 (ip), vehicle: saline 105 % of control | dose: 100.0 mg/kg/injection, schedule: Q04DX003 (ip), vehicle: saline 98 % of control | dose: 200.0 mg/kg/injection, schedule: Q04DX002 (ip), vehicle: saline 97 % of control | dose: 200.0 mg/kg/injection, schedule: Q04DX003 (ip), vehicle: saline 94 % of control

Oc1ccc(N=Cc2ccccc2O)cc1.[Co]
inactive: dose: 100.0 mg/kg/injection, schedule: Q01DX001 (ip), vehicle: other 98 % of control | dose: 200.0 mg/kg/injection, schedule: Q01DX001 (ip), vehicle: other 94 % of control | dose: 400.0 mg/kg/injection, schedule: Q01DX001 (ip), vehicle: other 102 % of control

CN(C)CCOC(=O)/C=C/c1ccccc1
inactive: [10] 89 % of control | [11] 96 % of control | [12] 88 % of control

O=C1c2ccccc2C(=O)C2C3C=CC(C3)C12 (configuration not stated)
inactive: dose: 50.0 mg/kg/injection, schedule: Q01DX001 (ip), vehicle: carboxymethylcellulose (CMC) 93 % of control | dose: 100.0 mg/kg/injection, schedule: Q01DX001 (ip), vehicle: carboxymethylcellulose (CMC) 100 % of control | dose: 200.0 mg/kg/injection, schedule: Q01DX001 (ip), vehicle: carboxymethylcellulose (CMC) 100 % of control | dose: 400.0 mg/kg/injection, schedule: Q01DX001 (ip), vehicle: carboxymethylcellulose (CMC) 103 % of control

C=C(C)CC1(CC)C(=O)NC(=S)NC1=O
inactive: [13] 96 % of control | [14] 98 % of control

Cc1cccc(NC(=O)C(C)(C)C)c1C
inactive: [1] 106 % of control | [2] 95 % of control | [3] 101 % of control

CC(C)CCNC(=O)CS(=O)(=O)c1ccc(N)cc1
inactive: [13] 98 % of control | [14] 98 % of control | [15] 96 % of control

CC(C)(Oc1ccc(Cl)cc1)C(=O)O
inactive: [4] 101 % of control | [5] 101 % of control | [6] 98 % of control

O=C1COC(=O)c2ccccc2O1
inactive: [13] 101 % of control | [14] 97 % of control | [15] 93 % of control

CCOC(=O)CNC(=O)CNC(=O)CCCCSc1ncnc2nc[nH]c12
inactive: [16] 110 % of control | [10] 98 % of control | dose: 50.0 mg/kg/injection, schedule: Q01DX009 (oral), vehicle: saline 104 % of control | [11] 103 % of control | dose: 100.0 mg/kg/injection, schedule: Q01DX009 (oral), vehicle: saline 90 % of control | [12] 101 % of control | dose: 200.0 mg/kg/injection, schedule: Q01DX009 (oral), vehicle: saline 106 % of control | [17] 100 % of control | dose: 400.0 mg/kg/injection, schedule: Q01DX009 (oral), vehicle: saline 93 % of control | dose: 800.0 mg/kg/injection, schedule: Q01DX009 (ip), vehicle: saline 115 % of control | dose: 800.0 mg/kg/injection, schedule: Q01DX009 (oral), vehicle: saline 97 % of control

COc1cc(C(=O)O)cc(OC)c1OC(C)=O
inactive: [18] 104 % of control | [19] 98 % of control | [20] 88 % of control

Cc1ccc(S(=O)(=O)NC(c2ccccc2)(c2ccccc2)c2ccc([N+](=O)[O-])cc2)cc1
inactive: [11] 100 % of control | [12] 103 % of control | [17] 101 % of control

COc1cc(/C=C2\CN(C)C(=O)C2=O)ccc1O
inactive: [18] 101 % of control | [13] 105 % of control | [19] 100 % of control | [14] 98 % of control | [20] 101 % of control | [15] 96 % of control

CN(C)CC(C)(C)CN1c2ccccc2Sc2ccccc21
inactive: dose: 3.12 mg/kg/injection, schedule: Q01DX009 (ip), vehicle: saline 90 % of control | dose: 6.25 mg/kg/injection, schedule: Q01DX009 (ip), vehicle: saline 103 % of control | dose: 12.5 mg/kg/injection, schedule: Q01DX009 (ip), vehicle: saline 101 % of control | [16] 97 % of control | [21] 101 % of control | [10] 106 % of control | [22] 91 % of control | [11] 100 % of control

Cc1ccc(S(=O)(=O)NC(=O)N(C)c2cc(N3CCCC3)ccn2)cc1
inactive: [4] 102 % of control | [5] 96 % of control | [6] 100 % of control

CNC1C(c2ccc(C)cc2)=NN(c2ccccc2)C1c1ccccc1 (configuration not stated)
inactive: [23] 95 % of control | dose: 200.0 mg/kg/injection, schedule: Q01DX001 (ip), vehicle: saline sonified 95 % of control | dose: 400.0 mg/kg/injection, schedule: Q01DX001 (ip), vehicle: saline sonified 89 % of control

Cc1cc([N+](=O)[O-])ccn1
inactive: [18] 94 % of control | [19] 93 % of control

CC1(C)N=C(N)N=C(N)N1c1cccc(OCCCOc2cccc(N)c2)c1
inactive: [24] 97 % of control | [25] 98 % of control

CNC(=S)NNc1ccccc1
inactive: [1] 110 % of control | [7] 104 % of control | dose: 100.0 mg/kg/injection, schedule: Q04DX003 (ip), vehicle: gum acacia 98 % of control | [2] 103 % of control | [8] 104 % of control | dose: 200.0 mg/kg/injection, schedule: Q04DX003 (ip), vehicle: gum acacia 96 % of control | [3] 103 % of control | [9] 103 % of control | dose: 400.0 mg/kg/injection, schedule: Q04DX003 (ip), vehicle: gum acacia 101 % of control

CC(C)C(C)/C=C\C(C)C1CCC2=C3CCC4CC(O)CCC4(C)C3CCC21C (configuration not stated)
inactive: dose: 100.0 mg/kg/injection, schedule: Q01DX001 (ip), vehicle: Klucel (hydroxypropylcellulose) (HPC) 97 % of control | dose: 200.0 mg/kg/injection, schedule: Q01DX001 (ip), vehicle: Klucel (hydroxypropylcellulose) (HPC) 97 % of control | dose: 400.0 mg/kg/injection, schedule: Q01DX001 (ip), vehicle: Klucel (hydroxypropylcellulose) (HPC) 93 % of control

O=C(Nc1nn[nH]n1)C(F)(F)F
inactive: [4] 108 % of control | [5] 103 % of control | [6] 105 % of control

CCNC(=O)N(CC)N=O
inactive: dose: 6.25 mg/kg/injection, schedule: Q01DX001 (ip), vehicle: saline 97 % of control | dose: 12.5 mg/kg/injection, schedule: Q01DX001 (ip), vehicle: saline 102 % of control | [24] 100 % of control | [25] 97 % of control | [4] 110 % of control | [5] 113 % of control | dose: 300.0 mg/kg/injection, schedule: Q01DX001 (ip), vehicle: saline 124 % of control | dose: 500.0 mg/kg/injection, schedule: Q01DX001 (ip), vehicle: saline 112 % of control

CCN(CC)CCCNC(C)=O
inactive: [11] 96 % of control | [12] 98 % of control

O=C(CCCCCCCCC(=O)Nc1ccccc1F)Nc1ccccc1F
inactive: [1] 101 % of control | [2] 102 % of control | [3] 101 % of control

NNC(=O)c1ccc(Cl)cc1Nc1ccc(F)cc1
inactive: [21] 94 % of control | [22] 100 % of control | [23] 111 % of control

CNC(=O)c1ccc(C(=O)NC)cc1
inactive: [13] 94 % of control | [14] 103 % of control | [15] 100 % of control

Clc1ccccc1/C=C1\c2ccc(Br)cc2-c2cccc[n+]21
inactive: dose: 75.0 mg/kg/injection, schedule: Q01DX001 (ip), vehicle: other 87 % of control

CCCCCCCCCCCCCCCC(=O)OCC1OC(CO)(OC2OC(CO)C(O)C(O)C2O)C(O)C1O (configuration not stated)
inactive: [1] 91 % of control | [7] 89 % of control | [2] 94 % of control | [8] 91 % of control | [9] 98 % of control
